Peptide text beside a SMILES is read from it.
Tests used:
Type in all cases: cell-based
[1] = tested on: Erwinia amylovora PMV6076; assay: Antibacterial activity (MIC), in vitro growth inhibition; conditions: Table S1, MIC range
Summary of the method: (§1)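 MIC determined by in vitro growth inhibition across 0.8, 1.6, 3.1, 6.2, 12.5, 25 and 50 μM peptide. Strains tested: E. amylovora PMV6076, P. syringae pv. syringae EPS94 and X. axonopodis pv. vesicatoria 2133-2.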

[2] = tested on: Pseudomonas syringae pv. syringae EPS94; assay: as above; conditions: Table S1, MIC range
Summary of the method: as §1

[3] = tested on: Xanthomonas axonopodis pv. vesicatoria 2133-2; conditions: Table S1, MIC range
Summary of the method: as §1

[4] = tested on: erythrocyte suspensions of human blood; assay: Hemolytic activity, hemoglobin release; conditions: human blood erythrocytes 5% v/v, absorbance 540 nm, percentage compared to melittin, three replicates; for Hemolysis (%) at 50 µM: peptide 50 μM (table prints 50 µM); for Hemolysis (%) at 125 µM: peptide 125 μM (table prints 125 µM)
Protocol: The hemolytic activity of the compounds was evaluated at 50 and 125 μM by determining hemoglobin release from erythrocyte suspensions of human blood (5% v/v) (Oxoid) using absorbance at 540 nm, as previously described. Three replicates for each peptide concentration were used.

Row | SMILES | MIC Ea [1] | MIC Pss [2] | MIC Xav [3] | Hemolysis (%) at 50 µM [4] | Hemolysis (%) at 125 µM [4]
1 | CC(C)C[C@@H]1NC(=O)[C@H](CCC(N)=O)NC(=O)[C@H](CCCCN)NC(=O)[C@H](CC(C)C)NC(=O)[C@H](CCCCN)NC(=O)[C@H](Cc2c[nH]c3ccccc23)NC(=O)[C@H](CCCCN)NC(=O)[C@H](CC(C)C)NC(=O)[C@H](CCCCN)NC(=O)[C@H](CCCCN)NC1=O [BPC120W, c(LKKLKWKLKQ)] (cyclo(KKLKWKLKQL)) | 12.5 to 25 µM | 3.1 to 6.2 µM | 1.6 to 3.1 µM | 6% | 9% and below 20%
2 | CC(C)C[C@@H]1NC(=O)[C@H](CCCCN)NC(=O)[C@H](Cc2c[nH]c3ccccc23)NC(=O)[C@H](CCCCN)NC(=O)[C@H](CCCCN)NC(=O)[C@H](CC(C)C)NC(=O)[C@H](CC(C)C)NC(=O)[C@H](CCCCN)NC(=O)[C@H](CCC(N)=O)NC(=O)[C@H](CCCCN)NC1=O [BPC122W, c(KLLKKWKLKQ)] (cyclo(KKWKLKQKLL)) | 12.5 to 25 µM | 3.1 to 6.2 µM | 6.2 to 12.5 µM | 2% | 6%
3 | CC(C)C[C@@H]1NC(=O)[C@H](CCCCN)NC(=O)[C@H](Cc2c[nH]c3ccccc23)NC(=O)[C@H](CCCCN)NC(=O)[C@H](CCCCN)NC(=O)[C@H](CCCCN)NC(=O)[C@H](CC(C)C)NC(=O)[C@H](CC(C)C)NC(=O)[C@H](CCC(N)=O)NC(=O)[C@H](CCCCN)NC1=O [BPC126W, c(LLKKKWKLKQ)] (cyclo(KKKWKLKQLL)) | 25 to 50 µM | 6.2 to 12.5 µM | 1.6 to 3.1 µM | 5% | 9%
4 | CC(C)C[C@@H]1NC(=O)[C@H](CCCCN)NC(=O)[C@H](CCCCN)NC(=O)[C@H](CCCCN)NC(=O)[C@H](CCC(N)=O)NC(=O)[C@H](CCCCN)NC(=O)[C@H](CCCCN)NC(=O)[C@H](CC(C)C)NC(=O)[C@H](Cc2c[nH]c3ccccc23)NC(=O)[C@H](CC(C)C)NC1=O [BPC128W, c(KKKLLWLKKQ)] (cyclo(KKKLLWLKKQ)) | 12.5 to 25 µM | 6.2 to 12.5 µM | 1.6 to 3.1 µM | 2% | 2%
5 | CC(C)C[C@@H]1NC(=O)[C@H](CCCCN)NC(=O)[C@H](CCCCN)NC(=O)[C@H](CCC(N)=O)NC(=O)[C@H](CCCCN)NC(=O)[C@H](CCCCN)NC(=O)[C@H](CC(C)C)NC(=O)[C@H](Cc2c[nH]c3ccccc23)NC(=O)[C@H](CC(C)C)NC(=O)[C@H](CCCCN)NC1=O [BPC130W, c(KKLKLWLKKQ)] (cyclo(KKLKLWLKKQ)) | 12.5 to 25 µM | 6.2 to 12.5 µM | 1.6 to 3.1 µM | 1% | 2%
6 | CC(C)C[C@@H]1NC(=O)[C@H](CCCCN)NC(=O)[C@H](CCC(N)=O)NC(=O)[C@H](CCCCN)NC(=O)[C@H](CCCCN)NC(=O)[C@H](CC(C)C)NC(=O)[C@H](Cc2c[nH]c3ccccc23)NC(=O)[C@H](CC(C)C)NC(=O)[C@H](CCCCN)NC(=O)[C@H](CCCCN)NC1=O [BPC132W, c(KLKKLWLKKQ)] (cyclo(KKLWLKKQKL)) | 12.5 to 25 µM | 3.1 to 6.2 µM | 1.6 to 3.1 µM | 5% | 8% and below 20%
7 | CC(C)C[C@@H]1NC(=O)[C@H](CCC(N)=O)NC(=O)[C@H](CCCCN)NC(=O)[C@H](CCCCN)NC(=O)[C@H](CC(C)C)NC(=O)[C@H](Cc2c[nH]c3ccccc23)NC(=O)[C@H](CC(C)C)NC(=O)[C@H](CCCCN)NC(=O)[C@H](CCCCN)NC(=O)[C@H](CCCCN)NC1=O [BPC134W, c(LKKKLWLKKQ)] (cyclo(KKKLWLKKQL)) | 25 to 50 µM | 6.2 to 12.5 µM | 3.1 to 6.2 µM | 3% | 4%
8 | CC(C)C[C@@H]1NC(=O)[C@H](CCCCN)NC(=O)[C@H](CCCCN)NC(=O)[C@H](CCC(N)=O)NC(=O)[C@H](CCCCN)NC(=O)[C@H](CCCCN)NC(=O)[C@H](CC(C)C)NC(=O)[C@H](Cc2c[nH]c3ccccc23)NC(=O)[C@H](CCCCN)NC(=O)[C@H](CC(C)C)NC1=O [BPC136W, c(KKLLKWLKKQ)] (cyclo(KKLLKWLKKQ)) | 6.2 to 12.5 µM | 6.2 to 12.5 µM | 3.1 to 6.2 µM | 1% | 2%
9 | CC(C)C[C@@H]1NC(=O)[C@H](CCCCN)NC(=O)[C@H](CC(C)C)NC(=O)[C@H](CCCCN)NC(=O)[C@H](CCC(N)=O)NC(=O)[C@H](CCCCN)NC(=O)[C@H](CCCCN)NC(=O)[C@H](CC(C)C)NC(=O)[C@H](Cc2c[nH]c3ccccc23)NC(=O)[C@H](CCCCN)NC1=O [BPC138W, c(KLKLKWLKKQ)] (cyclo(KKQKLKLKWL)) | 25 to 50 µM | 6.2 to 12.5 µM | 3.1 to 6.2 µM | 7% | 14%
10 | CC(C)C[C@@H]1NC(=O)[C@H](CCC(N)=O)NC(=O)[C@H](CCCCN)NC(=O)[C@H](CCCCN)NC(=O)[C@H](CC(C)C)NC(=O)[C@H](Cc2c[nH]c3ccccc23)NC(=O)[C@H](CCCCN)NC(=O)[C@H](CC(C)C)NC(=O)[C@H](CCCCN)NC(=O)[C@H](CCCCN)NC1=O [BPC140W, c(LKKLKWLKKQ)] (cyclo(KKLKWLKKQL)) | 12.5 to 25 µM | 6.2 to 12.5 µM | 3.1 to 6.2 µM | 31% | 37%
11 | CC(C)C[C@@H]1NC(=O)[C@H](CCCCN)NC(=O)[C@H](CCC(N)=O)NC(=O)[C@H](CCCCN)NC(=O)[C@H](CCCCN)NC(=O)[C@H](CC(C)C)NC(=O)[C@H](Cc2c[nH]c3ccccc23)NC(=O)[C@H](CCCCN)NC(=O)[C@H](CCCCN)NC(=O)[C@H](CC(C)C)NC1=O [BPC142W, c(KLLKKWLKKQ)] (cyclo(KKQKLLKKWL)) | 12.5 to 25 µM | 6.2 to 12.5 µM | 3.1 to 6.2 µM | 16% | 18%
12 | CC(C)C[C@@H]1NC(=O)[C@H](CCCCN)NC(=O)[C@H](CC(C)C)NC(=O)[C@H](CCC(N)=O)NC(=O)[C@H](CCCCN)NC(=O)[C@H](CCCCN)NC(=O)[C@H](CC(C)C)NC(=O)[C@H](Cc2c[nH]c3ccccc23)NC(=O)[C@H](CCCCN)NC(=O)[C@H](CCCCN)NC1=O [BPC144W, c(LKLKKWLKKQ)] (cyclo(KKQLKLKKWL)) | 12.5 to 25 µM | 3.1 to 6.2 µM | 1.6 to 3.1 µM | 16% | 21%
13 | CC(C)C[C@@H]1NC(=O)[C@H](CCC(N)=O)NC(=O)[C@H](CCCCN)NC(=O)[C@H](CCCCN)NC(=O)[C@H](CC(C)C)NC(=O)[C@H](Cc2c[nH]c3ccccc23)NC(=O)[C@H](CCCCN)NC(=O)[C@H](CCCCN)NC(=O)[C@H](CCCCN)NC(=O)[C@H](CC(C)C)NC1=O [BPC146W, c(LLKKKWLKKQ)] (cyclo(KKKWLKKQLL)) | 25 to 50 µM | 3.1 to 6.2 µM | 3.1 to 6.2 µM | 4% | 7%
14 | CC(C)C[C@@H]1NC(=O)[C@H](CCCCN)NC(=O)[C@H](CC(C)C)NC(=O)[C@H](CC(C)C)NC(=O)[C@H](CCCCN)NC(=O)[C@H](CCC(N)=O)NC(=O)[C@H](CCCCN)NC(=O)[C@H](CCCCN)NC(=O)[C@H](CCCCN)NC(=O)[C@H](Cc2c[nH]c3ccccc23)NC1=O [BPC154W, c(KLLKLWKKKQ)] (cyclo(KKKQKLLKLW)) | 25 to 50 µM | 3.1 to 6.2 µM | 1.6 to 3.1 µM | 4% | 7%
15 | CC(C)C[C@@H]1NC(=O)[C@H](CCCCN)NC(=O)[C@H](CCCCN)NC(=O)[C@H](CC(C)C)NC(=O)[C@H](CC(C)C)NC(=O)[C@H](CCC(N)=O)NC(=O)[C@H](CCCCN)NC(=O)[C@H](CCCCN)NC(=O)[C@H](CCCCN)NC(=O)[C@H](Cc2c[nH]c3ccccc23)NC1=O [BPC158W, c(LLKKLWKKKQ)] (cyclo(KKKQLLKKLW)) | 12.5 to 25 µM | 12.5 to 25 µM | 1.6 to 3.1 µM | 10% | 14%

— publication PMC6150173, “Tryptophan-Containing Cyclic Decapeptides with Activity against Plant Pathogenic Bacteria” (Molecules : A Journal of Synthetic Chemistry and Natural …, 2017)
